Assay results as given in patent US20110020843A1, “LABEL-FREE METHODS RELATED TO PHOSPHODIESTERASES” (priority 2009, published 2011).

Tests used:
[1] = test system: human lung carcinoma A549 cells; experiment: Label-free Epic biosensor DMR assay in A549 cells; type: cell-based; conditions: 10 micromolar, ultra-high confluent cells, 2 hrs in low CO2 (~2%) (FIG. 12B)
Procedure: 169. Cells were typically grown using ˜1 to 2×10^4 cells per well at passage 3 to 15 suspended in 50 μl of the corresponding culture medium in the biosensor microplate, and were cultured at 37° C. under air/5% CO2 for ˜1 day. Except for A431 which was subject to ˜20 hr starvation through continuously culture in the serum-free DMEM, the other cell types were directly assayed without starvation. The confluency for all cells at the time of assays was ˜95% to 100%.
177. Epic® wavelength interrogation system (Corning Inc., Corning, N.Y.) was used for whole cell sensing. This system consists of a temperature-control unit, an optical detection unit, and an on-board liquid handling unit with robotics. The detection unit is centered on integrated fiber optics, and enables kinetic measures of cellular responses with a time interval of ˜15 sec. The compound solutions were introduced by using the on-board liquid handling unit (i.e., pippetting).
190. Although we used A431 cells as a model, the disclosed methods are also applicable to other types.
191. To characterize the polypharmacology including PDE4 inhibitory activity of compounds, we used the known EGFR inhibitor tyrphostin 51 as an example. […] Next, one or more specific DMR parameters were chosen as a readout for plotting the DMR index of the molecule.

quiescent A431 cells = experiment: DMR modulation index against panel of markers in quiescent A431 cells; type: cell-based, human
Description: 191. To characterize the polypharmacology including PDE4 inhibitory activity of compounds, we used the known EGFR inhibitor tyrphostin 51 as an example. Quiescent A431 and proliferating A549 cells were separately exposed to tyrphostin 51 at 10 micromolar for about 1 hr to generate its primary profiles, followed by stimulation with each marker at a fixed concentration for another 1 hr or so to generate secondary profiles of the tyrphostin 51 against the panels of markers in both types of cells. Next, one or more specific DMR parameters were chosen as a readout for plotting the DMR index of the molecule.
192. The first panel of markers was contacted with quiescent A431 cells at concentrations close to each of the marker's EC80 or EC100, and DMR measurements were obtained with and EPIC® system. This panel of markers was selected from a library of markers identified in A431 cells using Epic® cellular assays. This panel included epidermal growth factor (EGF), epinephrine, nicotinic acid, and histamine. Each of these markers leads to a wide array of cell signaling. Using Epic® cellular assays in conjunction with chemical biology and cell biology approach similar to the EGFR DMR mentioned above, we have determined the pathway(s) and network interaction(s) that is accounted for each marker-induced DMR signal in A431 cells. The main observations are summarized below. Epidermal growth factor is a natural agonist for endogenous EGF receptor in A431 whose activation leads to a divergent array of cell signaling, including PLC-PI3K pathway, MAPK pathway, STAT pathway, and PKC pathway. Epinephrine is a natural agonist for endogenous beat2-adrenergic receptor in A431 cells, whose activation leads to cAMP-PKA pathway. Nicotinic acid is a natural agonist for endogenous GPR109A receptor in A431, whose activation leads to Gi-mediated signaling and MAPK pathway. Histamine is a natural agonist for endogenous histamine type 1 receptor (H1R) in A431, whose activation leads to Gq-mediated signaling and PKC pathway. […] Each DMR signal represents an averaged response of 4 replicates.
194. For the pinacidil DMR response in A549, the amplitude of the N-DMR (i.e., the amplitude 30 min after stimulation) was chosen. For the poly(I:C) DMR response in A549, the amplitude of the late DMR (i.e., the amplitude 50 min after stimulation) was chosen. For the PMA response in A549, the late DMR amplitude (i.e., the amplitude 50 min after stimulation) was chosen. For the SLIGKV-amide DMR response in A549, the P-DMR amplitude (i.e., the amplitude 20 min after stimulation) was chosen. For the forskolin response in A549 cells, the P-DMR amplitude (i.e., the amplitude 50 min after stimulation) was chosen. For the histamine response in A549, both the early DMR amplitude (i.e., amplitude 10 min after stimulation) and the late response (i.e., the amplitude 30 min after stimulation) were chosen. For the epinephrine response in A431, the P-DMR amplitude (i.e., the amplitude 50 min after stimulation) was chosen. For the nicotinic acid DMR in A431, the P-DMR amplitude (i.e., the amplitude 3 min after stimulation) was chosen. For the EGF DMR in A431, both the P-DMR (i.e., the amplitude 4 min after stimulation) and N-DMR amplitudes (i.e., the decaying amplitude between 4 min and 40 min after simulation) were chosen. For the histamine response in A431, the P-DMR amplitude (i.e., the amplitude 3 min after stimulation) was chosen. The percentage of modulation of the marker against each marker was calculated by normalizing the secondary profile of the molecule against the marker in the cell to the primary profile of the same marker acting on the same cell.

[2] = quiescent A431, 10 micromolar pretreatment ~1 hr

N#CC(C#N)=C(N)/C(C#N)=C/c1cc(O)c(O)c(O)c1 [tyrphostin 51]
primary DMR profile [1]: closely resembled the classic Gs-DMR signals
effect of pretreatment on EGF induced DMR signal (quiescent A431 cells; A431, FIG. 12C): attenuation
effect of pretreatment on epinephrine DMR signal (quiescent A431 cells; A431, FIG. 12C): partially attenuated
effect of pretreatment on histamine DMR signal (quiescent A431 cells; A431, FIG. 12C): partially attenuated
modulation of EGF N-DMR (decaying amplitude 4 to 40 min) (quiescent A431 cells; [2]): −5%
modulation of EGF P-DMR (amplitude 4 min) (quiescent A431 cells; [2]): −36%
modulation of epinephrine DMR (P-DMR amplitude 50 min) (quiescent A431 cells; [2]): −68%
modulation of histamine DMR (P-DMR amplitude 3 min) (quiescent A431 cells; [2]): −16%
modulation of nicotinic acid DMR (P-DMR amplitude 3 min) (quiescent A431 cells; [2]): +4%
